Laboratory results: patent US5430023A, “Tripeptide antithrombotic agents” (Eli Lilly and Company, priority 1993, dated 1995)
“And” between values parts separate entries of the source, which are not always exact repeats. Equal entries are not always repeated. Structures can show the parent of a compound that is named as a salt. Square brackets hold non-standard residues; d marks the D form. Peptide text beside a SMILES is read from it. * marks the point of attachment. dPhg = N[C@@H](C(=O)O)c1ccccc1; Boc = CC(C)(C)OC(=O)*

Experiments:
[1] = molecular target: T1, bovine thrombin (Bos taurus, UniProt P00735); test: Inhibition of thrombin amidase activity (chromogenic substrate), bovine thrombin; format: biochemical; conditions: apparent equilibrium constant inhibitor-thrombin, mean over a range of concentrations
T1 construct: 25 μl of bovine thrombin solution (0.21 mg/ml of thrombostat powder); purchased thrombostat powder
Method: The data in the table were obtained in an assay in which thrombin hydrolyzes the chromogenic substrate, N-benzoyl-D-phenylalanyl-L-valyl-L-arginyl-p-nitroanilide.
The assay was carried out in 50 μl buffer (0.03M Tris, 0.15M NaCl, pH 7.4) with 25 μl of bovine thrombin solution (0.21 mg/ml of thrombostat powder in 0.06M Tris, 0.3M NaCl, pH 7.4) and 150 μl of an aqueous solution of the chromogenic substrate at a concentration of 0.25 mg/ml. Solutions of test compound (25 μl) at various concentrations were added. […] Standard curves were constructed by plotting free thrombin concentration against hydrolysis rate. […] The amount of free inhibitor in each assay was calculated by subtracting the number of moles of bound thrombin from the number of moles of added inhibitor (test compound).
(§1) Kass was calculated for a range of concentrations of compounds and the mean value is reported in units of liter per mole.

[2] = test system: plasma coagulation (thromboplastin); test: Plasma coagulation assay: prothrombin time; format: biochemical
Method: The numerical values in the table are the concentrations of the test compounds (ng/ml) required to prolong coagulation by 2-fold in the three tests. The thrombin time evaluation was carried out in plasma and separately determined in a buffer system at pH 7.5.
(§2) The data presented in Table 2 were obtained using a CoaScreener instrument from Tecan, Inc. in the assay protocols listed below.
50 μl thromboplastin (Dade)

[3] = test system: plasma coagulation (Actin, CaCl2); test: Plasma coagulation assay: APTT (activated partial thromboplastin time); format: biochemical
Method: (§3) The anticoagulant activity of the compounds of the invention has been determined in standard tests. The following Table 2 presents the data obtained with representative compounds of the invention in tests used to determine prothrombin time, thrombin time and activated partial thromboplastin time (APTT). The numerical values in the table are the concentrations of the test compounds (ng/ml) required to prolong coagulation by 2-fold in the three tests. The thrombin time evaluation was carried out in plasma and separately determined in a buffer system at pH 7.5.
as §2

[4] = molecular target: T1, bovine thrombin; test: Plasma coagulation assay: thrombin time; format: biochemical
Method: as §3, §2
50 μl bovine thrombin (2 NIH

[5] = molecular target: T1, bovine thrombin; test: Thrombin time in buffer (fibrinogen instead of plasma); format: biochemical; conditions: Buffer (pH 7.5)
Method: as §3, §2
In the Thrombin Time determined in pH 7.4 buffer fibrinogen was used instead of plasma.

[6] = test system: arterial thrombosis in the carotid artery; test: Ferric chloride induced arterial thrombosis in the carotid artery of the rat; format: in vivo; conditions: infusion from 15 min before to 60 min after FeCl3, NA = Not active at 4 mg/kg/h or at 7 mg/kg/h, the highest doses tested
Method: The antithrombotic activity of representative compounds of the invention was determined in in vivo tests carried out in the rat. The test employed induced arterial thrombosis in the carotid artery of the rat and measured the infusion dose of test compound required to maintain blood flow for fifty minutes past the time of occlusion. The test was performed as follows.
Arterial thrombosis was induced in the rat by injury of the carotid artery. Topical application of a ferric chloride solution was used to injure the vessel. Male Sprague-Dawley rats (375-450 g) were anesthetized with xylazine (20 mg/kg, s.c.) followed by ketamine HCl (100 mg/kg, s.c.). Animals were laid on a water blanket in which the circulated water was maintained at 37° C. The carotid artery was approached through a midline cervical incision. Careful blunt dissection was used to expose and isolate the vessel from the carotid sheath. A silk suture was pulled underneath the artery to lift the vessel to provide clearance to insert a thermocouple underneath it. […] Small forceps were used to dip discs (3 mm dia) of Whatman No. 1 filter paper into a FeCl3 solution (35%). The discs were cut to equal size using sharpened stainless steel tubing (3 mm i.d.) chucked in a drill press. A saturated disc was placed on each carotid artery above the thermocouple. The time between FeCl3 application and the time at which temperature decreased abruptly was recorded as time to occlusion (TTO) of the vessel. The average time required for both vessels to occlude was used to represent TTO for each animal.
Test compounds were dissolved in isotonic saline. […]
The association between vessel occlusion and the abrupt temperature decrease was established by simultaneously recording the temperature and blood flow on the same recorder. […] Baseline temperature and flow velocity (determined with a Directional Pulsed Doppler Flowmeter, Model 545-C, University of Iowa Bioengineering) were recorded before application of 35% ferric chloride. […]

[7] = molecular target: T2, human thrombin (Homo sapiens, UniProt P00734); test: Inhibition of thrombin amidase activity (chromogenic substrate), human thrombin; format: biochemical; conditions: human thrombin (footnote 2)
T2 construct: purchased Inzyme Research Laboratories of South Bend, Ind
Method: The compounds provided by the invention (formula 1) inhibit the action of thrombin in man and animals. […] The following Table 1 lists the apparent equilibrium constant (Kass) for interaction between the test compound (inhibitor) and thrombin. The data in the table were obtained in an assay in which thrombin hydrolyzes the chromogenic substrate, N-benzoyl-D-phenylalanyl-L-valyl-L-arginyl-p-nitroanilide.
The assay was carried out in 50 μl buffer (0.03M Tris, 0.15M NaCl, pH 7.4) with 25 μl of bovine thrombin solution (0.21 mg/ml of thrombostat powder in 0.06M Tris, 0.3M NaCl, pH 7.4) and 150 μl of an aqueous solution of the chromogenic substrate at a concentration of 0.25 mg/ml. Solutions of test compound (25 μl) at various concentrations were added. Rates of hydrolysis of the substrate were measured by monitoring the reactions at 405 nm for the release of p-nitroaniline. […] The bound thrombin (bound to test compound) was calculated by subtracting the amount of free thrombin observed in each assay from the known initial amount of thrombin used in the assay. The amount of free inhibitor in each assay was calculated by subtracting the number of moles of bound thrombin from the number of moles of added inhibitor (test compound). […]
as §1

CC(C)(C)OC(=O)NC(C(=O)N1CCC[C@H]1C(=O)N[C@H](C=O)CCCNC(=N)N)c1cccc2ccccc12 (mixture of isomers) [Boc-DL-1-naphthylglycyl]
Thrombin Amidase Kass × 10^6 [1]: 18 × 10^6 1/mole | Prothrombin Time: concentration required to prolong coagulation by 2fold [2]: 1136 ng/mL | APTT: concentration required to prolong coagulation by 2fold [3]: 2272 ng/mL | Thrombin Time: concentration required to prolong coagulation by 2fold [4]: 320 ng/mL | Thrombin Time: concentration required to prolong coagulation by 2fold [5]: 112 ng/mL | ED50: infusion dose required to maintain blood flow for 50 min [6]: 5.5 mg/kg/h

CC(=O)O.CC(=O)O.CC(C)(C)OC(=O)N[C@@H](C(=O)N1CCC[C@H]1C(=O)N[C@H](C=O)CCCNC(=N)N)c1cccc2ccccc12 [Boc-D-1-naphthylglycyl, N-Boc-D-1-naphthylglycyl-Pro-Arg-H diacetate]
Thrombin Amidase Kass × 10^6 [1]: 52 × 10^6 1/mole | Prothrombin Time: concentration required to prolong coagulation by 2fold [2]: 1225 ng/mL | APTT: concentration required to prolong coagulation by 2fold [3]: 3100 ng/mL | Thrombin Time: concentration required to prolong coagulation by 2fold [4]: 230 ng/mL | Thrombin Time: concentration required to prolong coagulation by 2fold [5]: 105 ng/mL | ED50: infusion dose required to maintain blood flow for 50 min [6]: 6.4 mg/kg/h

CC(C)(C)OC(=O)N[C@@H](C(=O)N1CCC[C@H]1C(=O)N[C@H](C=O)CCCNC(=N)N)c1ccccc1 [Boc-D-phenylglycyl, N-(t-Butyloxycarbonyl)-D-phenylglycyl-L-Prolyl-L-Arginine aldehyde (Boc-D-Phg-Pro-Arg-H) diacetate salt] (Boc-[dPhg]-Pro-Arg-aldehyde)
Thrombin Amidase Kass × 10^6 ([1]; diacetate salt): 88 × 10^6 1/mole and 73 × 10^6 1/mole | Prothrombin Time: concentration required to prolong coagulation by 2fold [2]: 667 ng/mL | APTT: concentration required to prolong coagulation by 2fold [3]: 1169 ng/mL | Thrombin Time: concentration required to prolong coagulation by 2fold [4]: 110 ng/mL | Thrombin Time: concentration required to prolong coagulation by 2fold [5]: 118 ng/mL | ED50: infusion dose required to maintain blood flow for 50 min [6]: 2.9 mg/kg/h

N=C(N)NCCCC(C=O)NC(=O)C1CCCN1C(=O)C1CC2CCCCC2CN1 [D-3-(4aS, 8aS)-Piq-(L)-Pro-(L)-Arg-H]
Thrombin Amidase Kass × 10^6 [7]: 56 × 10^6 1/mole

D-3 -(4aR, 8aR)-Piq-(L)-Pro-(L)-Arg-H
Thrombin Amidase Kass × 10^6 [7]: 214 × 10^6 1/mole
